Reference: the supplement of paper PMC10307832

What was measured:
Test in all cases: relative viability (nuclei count vs DMSO), 5 days (fraction); higher = more cells survive
[1] = tested on: HCC-366
In short: (§1)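 Nuclei were stained with Hoechst during a one-step fixation (final 0.05% Triton X-100, 1% formaldehyde, 1 ug/ml Hoechst) carried out 5 days after dosing, then counted on 4× images. The cells, lung cancer lines in 1536-well plates, had been dosed by pin tool the day after seeding with one drug alone or a fixed anchor-drug dose plus five library-drug doses (not always all listed) in √10 steps. Relative viability is the nuclei count in treated wells divided by that in vehicle wells, and each value is the median of duplicate plates.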

[2] = tested on: NCI-H3122
In short: as §1

[3] = tested on: NCI-H1703
In short: as §1

[4] = tested on: IA-LM
In short: as §1

[5] = tested on: Calu-6
In short: as §1

[6] = tested on: HCC-44
In short: as §1

[7] = tested on: EBC-1
In short: as §1

[8] = tested on: A549
In short: as §1

[9] = tested on: NCI-H1299
In short: as §1

[10] = tested on: NCI-H2085
In short: as §1

[11] = tested on: LOU-NH91
In short: as §1

[12] = tested on: NCI-H1437
In short: as §1

O=c1cc(-c2cccc3c2Sc2ccccc2S3)oc(N2CCOCC2)c1 + CS(=O)(=O)N1CCN(Cc2cc3nc(-c4cccc5[nH]ncc45)nc(N4CCOCC4)c3s2)CC1 [Pictilisib] (partner 1 µM)
relative viability ([1]; first compound 0.08 µM): 0.138 | relative viability ([1]; first compound 0.253 µM): 0.129 | relative viability ([1]; first compound 0.8 µM): 0.114 | relative viability ([1]; first compound 2.53 µM): 0.122 | relative viability ([1]; first compound 8 µM): 0.158 | relative viability ([2]; first compound 0.08 µM): 0.481 | relative viability ([2]; first compound 0.253 µM): 0.755 | relative viability ([2]; first compound 0.8 µM): 0.452 | relative viability ([2]; first compound 2.53 µM): 0.595 | relative viability ([2]; first compound 8 µM): 0.568 | relative viability ([3]; first compound 0.253 µM): 0.25 | relative viability ([3]; first compound 0.8 µM): 0.279 | relative viability ([3]; first compound 2.53 µM): 0.241 | relative viability ([3]; first compound 8 µM): 0.316 | relative viability ([4]; first compound 0.08 µM): 0.278 | relative viability ([4]; first compound 0.8 µM): 0.328 | relative viability ([4]; first compound 2.53 µM): 0.346 | relative viability ([4]; first compound 8 µM): 0.315 | relative viability ([5]; first compound 0.08 µM): 0.86 | relative viability ([5]; first compound 0.253 µM): 0.882 | relative viability ([5]; first compound 0.8 µM): 0.96 | relative viability ([5]; first compound 2.53 µM): 0.959 | relative viability ([5]; first compound 8 µM): 0.871 | relative viability ([6]; first compound 0.08 µM): 0.457 | relative viability ([6]; first compound 0.253 µM): 0.655 | relative viability ([6]; first compound 0.8 µM): 0.536 | relative viability ([6]; first compound 2.53 µM): 0.468 | relative viability ([6]; first compound 8 µM): 0.577 | relative viability ([7]; first compound 0.08 µM): 0.352 | relative viability ([7]; first compound 0.253 µM): 0.469 | relative viability ([7]; first compound 0.8 µM): 0.342 | relative viability ([7]; first compound 2.53 µM): 0.401 | relative viability ([7]; first compound 8 µM): 0.298 | relative viability ([8]; first compound 0.08 µM): 0.542 | relative viability ([8]; first compound 0.253 µM): 0.852 | relative viability ([8]; first compound 0.8 µM): 0.681 | relative viability ([8]; first compound 2.53 µM): 0.481 | relative viability ([8]; first compound 8 µM): 0.651 | relative viability ([9]; first compound 0.08 µM): 0.679 | relative viability ([9]; first compound 0.253 µM): 0.827 | relative viability ([9]; first compound 0.8 µM): 0.856 | relative viability ([9]; first compound 2.53 µM): 0.763 | relative viability ([9]; first compound 8 µM): 0.854 | relative viability ([10]; first compound 0.08 µM): 0.44 | relative viability ([10]; first compound 0.253 µM): 0.586 | relative viability ([10]; first compound 0.8 µM): 0.476 | relative viability ([10]; first compound 2.53 µM): 0.464 | relative viability ([10]; first compound 8 µM): 0.494 | relative viability ([11]; first compound 0.08 µM): 0.519 | relative viability ([11]; first compound 0.253 µM): 0.542 | relative viability ([11]; first compound 0.8 µM): 0.438 | relative viability ([11]; first compound 2.53 µM): 0.504 | relative viability ([11]; first compound 8 µM): 0.531 | relative viability ([12]; first compound 0.08 µM): 0.464 | relative viability ([12]; first compound 0.253 µM): 0.534 | relative viability ([12]; first compound 0.8 µM): 0.395 | relative viability ([12]; first compound 2.53 µM): 0.373 | relative viability ([12]; first compound 8 µM): 0.37

O=c1cc(N2CCOCC2)oc2c(-c3cccc4c3sc3ccccc34)cccc12 + C[C@@H](Oc1cc(-c2cnn(C3CCNCC3)c2)cnc1N)c1c(Cl)ccc(F)c1Cl [Crizotinib] (partner 1 µM)
relative viability ([1]; first compound 0.01 µM): 0.457 | relative viability ([1]; first compound 0.03162 µM): 0.506 | relative viability ([1]; first compound 0.1 µM): 0.66 | relative viability ([1]; first compound 0.3162 µM): 0.471 | relative viability ([1]; first compound 1 µM): 0.598 | relative viability ([2]; first compound 0.01 µM): 0.269 | relative viability ([2]; first compound 0.03162 µM): 0.273 | relative viability ([2]; first compound 0.1 µM): 0.274 | relative viability ([2]; first compound 0.3162 µM): 0.297 | relative viability ([2]; first compound 1 µM): 0.284 | relative viability ([3]; first compound 0.01 µM): 0.769 | relative viability ([3]; first compound 0.03162 µM): 0.604 | relative viability ([3]; first compound 0.1 µM): 0.918 | relative viability ([3]; first compound 0.3162 µM): 0.584 | relative viability ([3]; first compound 1 µM): 0.591 | relative viability ([4]; first compound 0.01 µM): 0.965 | relative viability ([4]; first compound 0.03162 µM): 0.694 | relative viability ([4]; first compound 0.1 µM): 0.683 | relative viability ([4]; first compound 0.3162 µM): 0.732 | relative viability ([4]; first compound 1 µM): 0.621 | relative viability ([5]; first compound 0.01 µM): 0.858 | relative viability ([5]; first compound 0.03162 µM): 0.857 | relative viability ([5]; first compound 0.1 µM): 0.793 | relative viability ([5]; first compound 0.3162 µM): 0.759 | relative viability ([5]; first compound 1 µM): 0.777 | relative viability ([6]; first compound 0.01 µM): 0.862 | relative viability ([6]; first compound 0.03162 µM): 0.811 | relative viability ([6]; first compound 0.1 µM): 0.814 | relative viability ([6]; first compound 0.3162 µM): 0.788 | relative viability ([6]; first compound 1 µM): 0.776 | relative viability ([7]; first compound 0.01 µM): 0.208 | relative viability ([7]; first compound 0.03162 µM): 0.227 | relative viability ([7]; first compound 0.1 µM): 0.207 | relative viability ([7]; first compound 0.3162 µM): 0.221 | relative viability ([7]; first compound 1 µM): 0.204 | relative viability ([8]; first compound 0.01 µM): 0.771 | relative viability ([8]; first compound 0.03162 µM): 0.769 | relative viability ([8]; first compound 0.1 µM): 0.746 | relative viability ([8]; first compound 0.3162 µM): 0.828 | relative viability ([8]; first compound 1 µM): 0.659 | relative viability ([9]; first compound 0.01 µM): 0.949 | relative viability ([9]; first compound 0.03162 µM): 0.954 | relative viability ([9]; first compound 0.1 µM): 0.973 | relative viability ([9]; first compound 0.3162 µM): 0.637 | relative viability ([9]; first compound 1 µM): 0.923 | relative viability ([10]; first compound 0.01 µM): 0.941 | relative viability ([10]; first compound 0.03162 µM): 0.89 | relative viability ([10]; first compound 0.1 µM): 0.879 | relative viability ([10]; first compound 0.3162 µM): 0.841 | relative viability ([10]; first compound 1 µM): 0.889 | relative viability ([11]; first compound 0.01 µM): 0.705 | relative viability ([11]; first compound 0.03162 µM): 0.695 | relative viability ([11]; first compound 0.1 µM): 0.717 | relative viability ([11]; first compound 0.3162 µM): 0.738 | relative viability ([11]; first compound 1 µM): 0.698 | relative viability ([12]; first compound 0.01 µM): 0.963 | relative viability ([12]; first compound 0.03162 µM): 0.896 | relative viability ([12]; first compound 0.1 µM): 0.959 | relative viability ([12]; first compound 0.3162 µM): 0.915 | relative viability ([12]; first compound 1 µM): 0.82
